Laboratory results reported in ChEMBL document CHEMBL5346940, “Design, synthesis and biological evaluation of dual Topo II/HDAC inhibitors bearing pyrimido[5,4-b]indole and pyrazolo[3,4-d]pyrimidine motifs” (Eur J Med Chem, 2023).
pIC50: −log10 of the molar value. Calls of active or inactive are those of the source. No cut-off for these calls is given here.

Tests used:
[1] = system: U-937; test: Antiproliferative activity against human U-937 cells assessed as reduction in cell viability measured for 48 hrs by MTT assay; type: functional, cell-based; settings: U-937, 48 h
[2] = system: NIH3T3; test: Antiproliferative activity against mouse 3T3 cells assessed as reduction in cell viability at 100 uM measured for 48 hrs by MTT assay relative to control; type: toxicity, cell-based; settings: nih3t3, 48 h
[3] = system: MCF7; test: Antiproliferative activity against human MCF7 cells assessed as reduction in cell viability measured for 48 hrs by MTT assay; type: functional, cell-based; settings: MCF7, 48 h
[4] = target: DNA topoisomerase 2-alpha (Homo sapiens) (UniProt P11388); test: Inhibition of human topoisomerase 2 assessed as relaxation of pBR322 plasmid DNA at 100 uM measured after 30 mins by ethidium bromide staining based UV transilluminator analysis
Sequence of DNA topoisomerase 2-alpha (Homo sapiens) (P11388 whole entry): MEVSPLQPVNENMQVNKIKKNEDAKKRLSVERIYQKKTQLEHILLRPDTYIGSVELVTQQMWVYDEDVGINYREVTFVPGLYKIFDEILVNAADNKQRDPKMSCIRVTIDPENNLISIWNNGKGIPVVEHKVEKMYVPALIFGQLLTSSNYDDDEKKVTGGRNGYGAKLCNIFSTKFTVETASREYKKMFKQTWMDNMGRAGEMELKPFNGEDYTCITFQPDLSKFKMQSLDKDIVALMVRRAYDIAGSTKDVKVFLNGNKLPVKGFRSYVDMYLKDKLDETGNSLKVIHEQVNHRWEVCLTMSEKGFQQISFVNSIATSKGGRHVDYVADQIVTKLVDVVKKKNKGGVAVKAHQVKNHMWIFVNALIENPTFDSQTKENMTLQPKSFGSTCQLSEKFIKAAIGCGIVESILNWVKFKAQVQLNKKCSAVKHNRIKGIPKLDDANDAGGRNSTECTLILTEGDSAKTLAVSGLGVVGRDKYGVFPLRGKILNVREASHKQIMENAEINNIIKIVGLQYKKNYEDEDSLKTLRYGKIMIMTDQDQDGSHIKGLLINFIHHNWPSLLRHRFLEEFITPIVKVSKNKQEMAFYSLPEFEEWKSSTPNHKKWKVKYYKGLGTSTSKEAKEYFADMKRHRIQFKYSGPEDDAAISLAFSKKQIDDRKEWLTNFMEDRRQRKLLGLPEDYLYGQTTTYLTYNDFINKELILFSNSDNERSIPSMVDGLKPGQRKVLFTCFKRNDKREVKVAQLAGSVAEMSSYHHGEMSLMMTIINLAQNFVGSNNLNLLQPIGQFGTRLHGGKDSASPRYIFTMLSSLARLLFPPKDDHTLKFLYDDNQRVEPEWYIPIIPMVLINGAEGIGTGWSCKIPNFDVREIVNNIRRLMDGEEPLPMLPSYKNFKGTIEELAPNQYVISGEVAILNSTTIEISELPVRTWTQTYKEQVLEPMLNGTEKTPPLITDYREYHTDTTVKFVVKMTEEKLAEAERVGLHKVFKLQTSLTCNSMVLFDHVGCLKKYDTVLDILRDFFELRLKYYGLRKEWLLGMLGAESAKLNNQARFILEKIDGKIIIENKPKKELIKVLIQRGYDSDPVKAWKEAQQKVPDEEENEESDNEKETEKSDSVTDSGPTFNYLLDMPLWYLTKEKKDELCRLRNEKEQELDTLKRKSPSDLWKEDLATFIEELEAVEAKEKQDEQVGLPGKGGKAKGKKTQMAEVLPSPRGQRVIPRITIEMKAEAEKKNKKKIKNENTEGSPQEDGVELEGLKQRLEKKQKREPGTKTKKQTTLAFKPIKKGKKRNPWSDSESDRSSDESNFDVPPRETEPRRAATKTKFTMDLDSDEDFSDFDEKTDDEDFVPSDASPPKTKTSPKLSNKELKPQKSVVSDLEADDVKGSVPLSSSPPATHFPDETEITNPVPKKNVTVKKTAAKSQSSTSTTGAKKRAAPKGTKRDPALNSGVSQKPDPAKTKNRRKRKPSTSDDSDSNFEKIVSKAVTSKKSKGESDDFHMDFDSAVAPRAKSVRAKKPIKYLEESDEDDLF

[5] = target: T1, DNA topoisomerase 1 (Homo sapiens) (UniProt P11387); test: Inhibition of human topoisomerase 1 assessed as relaxation of pBR322 plasmid DNA at 100 uM measured after 30 mins by agarose gel electrophoresis analysis
T1 sequence (whole entry): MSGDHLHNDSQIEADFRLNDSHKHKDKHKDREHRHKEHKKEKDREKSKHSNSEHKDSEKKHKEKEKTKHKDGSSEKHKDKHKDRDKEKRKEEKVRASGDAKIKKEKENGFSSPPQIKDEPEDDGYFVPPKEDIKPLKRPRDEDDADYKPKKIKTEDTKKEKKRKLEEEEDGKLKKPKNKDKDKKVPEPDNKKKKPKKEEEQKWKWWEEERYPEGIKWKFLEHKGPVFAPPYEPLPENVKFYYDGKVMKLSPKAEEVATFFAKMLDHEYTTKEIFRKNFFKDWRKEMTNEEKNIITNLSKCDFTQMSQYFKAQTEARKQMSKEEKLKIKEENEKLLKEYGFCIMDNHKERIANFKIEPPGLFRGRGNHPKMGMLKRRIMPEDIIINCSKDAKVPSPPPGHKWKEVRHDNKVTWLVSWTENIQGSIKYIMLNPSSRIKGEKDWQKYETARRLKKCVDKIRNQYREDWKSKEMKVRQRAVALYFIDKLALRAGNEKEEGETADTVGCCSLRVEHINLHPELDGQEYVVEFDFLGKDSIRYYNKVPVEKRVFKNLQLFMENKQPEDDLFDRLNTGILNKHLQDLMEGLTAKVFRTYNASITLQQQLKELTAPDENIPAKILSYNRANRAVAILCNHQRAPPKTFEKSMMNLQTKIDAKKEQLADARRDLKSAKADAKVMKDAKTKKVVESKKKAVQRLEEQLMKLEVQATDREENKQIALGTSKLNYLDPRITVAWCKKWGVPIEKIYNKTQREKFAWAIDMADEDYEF

[6] = system: MGC-803; test: Antiproliferative activity against human MGC-803 cells assessed as reduction in cell viability measured for 48 hrs by MTT assay; type: functional, cell-based; settings: MGC-803, 48 h
[7] = target: Histone deacetylase; test: Inhibition of HDAC in human HeLa nuclear extract measured after 30 mins by fluorescence based assay; type: cell-free
[8] = system: MCF7; test: Induction of apoptosis in human MCF7 cells assessed as early apoptotic cells at 10 uM incubated for 48 hrs by AnnexinV-FITC/propidium iodide staining based flow cytometry analysis (reference value: 0.28 %); type: functional
[9] = system: MCF7; test: Induction of apoptosis in human MCF7 cells assessed as late apoptotic cells at 10 uM incubated for 48 hrs by AnnexinV-FITC/propidium iodide staining based flow cytometry analysis (reference value: 0.015 %); type: functional
[10] = system: MCF7; test: Induction of apoptosis in human MCF7 cells assessed as necrotic cells at 10 uM incubated for 48 hrs by AnnexinV-FITC/propidium iodide staining based flow cytometry analysis (reference value: 0.55 %); type: functional
[11] = system: MCF7; test: Induction of apoptosis in human MCF7 cells assessed as viable cells at 10 uM incubated for 48 hrs by AnnexinV-FITC/propidium iodide staining based flow cytometry analysis (reference value: 99.2 %); type: functional; settings: read-out: Activity
[12] = system: MCF7; test: cells; type: functional; settings: Homo sapiens, time 48 hrs
Description: Inhibition of cell migration in human MCF7 cells assessed as reduction in cell migration at 1 uM measured for 48 hrs by wound healing assay based microscopic analysis (Rvb = 70.25%)

[13] = target: DNA topoisomerase 2-alpha (Homo sapiens) (UniProt P11388); test: Poison activity at human topoisomerase 2 assessed as stabilization of enzyme-DNA cleavage complex by measuring linear DNA formation at 100 uM incubated for 6 mins by EtBr staining based UV light analysis
[14] = system: MCF7; test: cells; type: functional; settings: Homo sapiens, time 48 hrs; remark: listed apart in the source
Description: Inhibition of cell migration in human MCF7 cells assessed as reduction in cell migration at 2.5 uM measured for 48 hrs by wound healing assay based microscopic analysis (Rvb = 70.25%)

Structure (SMILES)	pIC50 [1]	Activity [2] [%]	pIC50 [3]	topoisomerase II inhibition (active/inactive) [4]	inhibition (active/inactive call) [5]	pIC50 [6]	IC50 [7] [µM]	Activity [8] [%]	Activity [9] [%]	Activity [10] [%]	viability at 10 µM [11] [%]	inhibition at 1 µM [12] [%]	Activity [13]	inhibition at 2.5 µM [14] [%]
O=C(CSc1nc2[nH]ncc2c(=O)[nH]1)NO	4.63	41.42	< 4.10	Active	Active	4.51								
O=C(CCSc1nc2c([nH]c3ccccc32)c(=O)[nH]1)NO	4.55	21.73	4.22	Active	Active	4.61								
O=C(CSc1nc2c([nH]c3ccccc32)c(=O)[nH]1)NO	4.57	38.47	< 4.10	Active	Active	< 4.10								
O=C(/C=C/c1ccc(CSc2nc3[nH]ncc3c(=O)[nH]2)cc1)NO	4.32	39.04	4.67	Active	Active	4.80								
O=C(CCSc1nc2[nH]ncc2c(=O)[nH]1)NO	4.50	48.81	4.65	Active	Active	4.72								
CCn1c(SCCCCCC(=O)NO)nc2c([nH]c3ccccc32)c1=O	4.71	43.13	4.59		Active	4.58								
O=C(CCCSc1nc2c([nH]c3ccccc32)c(=O)[nH]1)NO	4.27	38.06	4.38	Active	Active	4.47								
O=C(CCCCCCSc1nc2c([nH]c3ccccc32)c(=O)[nH]1)NO	4.71	53.49	4.60	Active	Active	4.70								
O=C(CCCCCSc1nc2c([nH]c3ccccc32)c(=O)[nH]1)NO	4.46	65.7	4.54	Active	Active	4.56	2.58							
CC[C@@]1(O)C(=O)OCc2c1cc1n(c2=O)Cc2cc3ccccc3nc2-1 [CAMPTOTHECIN]	4.74	37.51	4.73			4.75								
CCn1c(SCCC(=O)NO)nc2c([nH]c3ccccc32)c1=O	4.74	53.79	4.37		Active	4.36								
O=C(CCCSc1nc2[nH]ncc2c(=O)[nH]1)NO	4.66	32.15	4.69		Active	4.56								
C/C(=N/O)c1ccc(NC(=O)CCCSc2nc3[nH]ncc3c(=O)[nH]2)cc1	4.35	38.02	4.44		Active	4.44								
CCn1c(SCC(=O)NO)nc2c([nH]c3ccccc32)c1=O	4.82	45.5	4.38		Active	4.50								
CCn1c(SCCCC(=O)NO)nc2c([nH]c3ccccc32)c1=O	4.74	46.33	< 4.10		Active	4.76								
O=C(CCCCSc1nc2[nH]ncc2c(=O)[nH]1)NO	4.71	24.26	4.72	Active	Active	4.40								
O=C(CCCCCSc1nc2[nH]ncc2c(=O)[nH]1)NO	4.67	20.31	4.81	Active	Active	4.59								
CCn1c(SCCCCCCC(=O)NO)nc2c([nH]c3ccccc32)c1=O	4.66	61.71	4.46		Active	4.33								
O=C(CCCCCCC(=O)Nc1ccccc1)NO [VORINOSTAT]	5.80	14.98				5.80		35.2	19.7	0.41	44.7			
O=C(/C=C/CSc1nc2c([nH]c3ccccc32)c(=O)[nH]1)NO	4.66	41.34	4.31	Active	Active	4.69								
C/C(=N\O)c1ccc(NC(=O)CSc2nc3c([nH]c4ccccc43)c(=O)[nH]2)cc1	4.43	18.72	< 4.10	Active	Active	4.48								
CCn1c(SCC(=O)Nc2ccc(/C(C)=N/O)cc2)nc2c([nH]c3ccccc32)c1=O	4.52	21.56	4.43	Active	Active	4.32								
CCn1c(SCCCCCCCC(=O)NO)nc2c([nH]c3ccccc32)c1=O	4.60	43.12	4.71		Active	4.44								
COc1cc([C@@H]2c3cc4c(cc3[C@@H](O[C@@H]3O[C@@H]5CO[C@@H](C)O[C@H]5[C@H](O)[C@H]3O)[C@H]3COC(=O)[C@H]23)OCO4)cc(OC)c1O [ETOPOSIDE]	4.64	21.47	4.53			4.97		4.41	2.48	0.37	92.7	64.7	Active	47.1
CCn1c(SC/C=C/C(=O)NO)nc2c([nH]c3ccccc32)c1=O	4.63	50.31	4.45		Active	4.59								
O=C(/C=C/c1ccc(CSc2nc3c([nH]c4ccccc43)c(=O)[nH]2)cc1)NO	4.52	21.56	4.43		Active	4.66	2.38							
C/C(=N\O)c1ccc(NC(=O)CSc2nc3[nH]ncc3c(=O)[nH]2)cc1	4.51	41.36	4.33		Active	4.37								
